This assay deals with MDA-MB-468 breast. In words: growth of human tumour cells (NCI), 48 h.

Values joined by “and” are separate entries in the source; they are usually repeats but may differ in a detail not shown here. Identical values can stand only once.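 Where inhibition never reached the appropriate level, the endpoint shown equals the highest concentration tested. Otherwise, values were interpolated linearly from a five-concentration, 48-hour dose response in 96-well plates. GI50 is the concentration that inhibits growth by half. TGI: concentration producing complete growth inhibition.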 Where a SMILES comes first, the peptide text is derived from it. [ ]: non-standard residue; d: D form. Phe(ol) = N[C@H](CO)Cc1ccccc1; Aib = CC(C)(N)C(=O)O

Take `COc1cc(/C=N\Nc2ccccc2)ccc1OC(=O)c1ccccc1`: the GI50 is 2.74 µM and the TGI was 34.8 µM.
With `COc1cc(/C=N/NC(=O)c2cnn3c2NC(c2ccccc2)C3)ccc1OCc1ccccc1` (configuration not stated), the GI50 was 0.318 µM and the TGI came out at 2.16 µM.
The corresponding values for `CN1CCN(Cc2ccc(NC(=O)c3cncc(C#Cc4c(N)ncc5ccccc45)c3)cc2C(F)(F)F)CC1` are 0.818 µM and 1.63 µM.
In the case of `C#CCn1cccc1CNc1ccc(OC)cc1`, the GI50 is 14.2 µM and the TGI came to 60.5 µM.
The matching figures for `CO/N=C1\CCc2c(sc(NC(=O)c3cccc(C(F)(F)F)c3)c2C(N)=O)C1`: 1.5 µM and 5.91 µM.
The corresponding values for `O=C(NCCN1CCOCC1)c1cc2c(Oc3ccc(NC(=O)C4(C(=O)Nc5ccc(F)cc5)CC4)cc3)ccnc2[nH]1` are 2.31 µM and 13.6 µM.
The matching figures for `COc1ccc(/C(=C(\c2ccccc2)[N+](=O)[O-])c2ccc(OCCN3CCCC3)cc2)cc1`: 1.75 µM and 4.27 µM.
Take `COc1cc(F)c(F)c(Nc2ccc(I)cc2F)c1NS(=O)(=O)C1(CC(O)CO)CC1` (configuration not stated): the GI50 is 14.4 µM and the TGI was 47.7 µM.
The matching figures for `ClC/C=C/CSc1ncnc2nc[nH]c12`: > 100 µM and > 100 µM.
On to `O=C(NOCCO)c1ccc2cncn2c1Nc1ccc(I)cc1F`, for which the GI50 is > 10 µM and 22.3 µM; the TGI was > 100 µM.
As to `COc1cc(C(=O)/C=C/c2c[nH]c3ccccc23)cc(OC)c1OC`, the GI50 was 0.0857 µM and the TGI stood at 1.61 µM.
The corresponding values for `O=C(CC1(O)C(=O)Nc2ccc(Cl)cc21)c1ccc(C(=O)NCC2CCC3(CC2)OOC2(CCCCC2)OO3)cc1` (configuration not stated) are 2.12 µM and 5.66 µM.
The corresponding values for `CCCCCn1sc(=O)n(Cc2ccc(CNC(=O)C(C)c3ccc(CC(C)C)cc3)cc2)c1=O` (configuration not stated) are 0.945 µM and 2.45 µM.
The corresponding values for `N#Cc1cnn(C(=O)c2nn(-c3ccc(Cl)cc3)cc2O)c1N` are 0.948 µM and 15.1 µM.
As for `Cc1cnc(C(=O)Nc2nc3ccc(S(=O)(=O)Nc4ccc(C(C)(C)C)cc4)cc3[nH]2)cn1`, the GI50 is 0.27 µM and the TGI was determined as 1.73 µM.
As for `CCCCCCCCCC(=O)Oc1ccc(/C(=C(/C)c2ccccc2)c2ccc(OCCN3CCCC3)cc2)cc1`, the GI50 was 7.25 µM and the TGI was found to be 14.7 µM.
The matching figures for `CCNC(=O)N1CCc2cc(OC)c(OCCc3ccc(OC)cc3)cc2C1c1ccc([N+](=O)[O-])cc1C` (configuration not stated): 1.37 µM and 4.78 µM.
The matching figures for `N#Cc1ccc2c(-c3ccnc(NC4CC4)n3)c(-c3ccc(F)cc3)nn2c1`: > 24.2 µM and > 25 µM.
With `COc1ccc(/C=C\c2cc(OC)c(OC)c(OC)c2)cc1NC(=O)/C=C/c1cc(OC)c(OC)c(OC)c1`, the GI50 is 1.82 µM and the TGI came to 6.66 µM.
The matching figures for `Cc1cc2nc3c4cc(C#N)ccc4n(CCN(C)C)c3nc2cc1C`: 1.33 µM and 3.91 µM.
The corresponding values for `COc1cccc(/C=C\C(=O)c2ccccc2)c1` are 2.14 µM and 6.49 µM.
As to `O=C(/C=C/c1ccco1)Nc1ncc(Cc2cc(Cl)ccc2Cl)s1`, the GI50 was 0.15 µM and the TGI is > 46 µM.
The matching figures for `O=C1c2ccccc2-c2cn(Cc3ccccc3)c3cccc(c23)C1c1cccnc1` (configuration not stated): 2 µM and 37.6 µM.
The corresponding values for `CC(=O)NC(C)(C)C(=O)N1CCC[C@H]1C(=O)NC(C)(C)C(=O)N[C@@H](C)C(=O)NC(C)(C)C(=O)NC(C)(C)C(=O)N[C@@H](CCC(N)=O)C(=O)NC(C)(C)C(=O)N[C@H](C(=O)NC(C)(C)C(=O)NCC(=O)N[C@@H](CC(C)C)C(=O)NC(C)(C)C(=O)N1CCC[C@H]1C(=O)N[C@H](C(=O)NC(C)(C)C(=O)NC(C)(C)C(=O)N[C@@H](CCC(N)=O)C(=O)N[C@@H](CCC(N)=O)C(=O)N[C@H](CO)Cc1ccccc1)C(C)C)C(C)C` (Ac-[Aib]P[Aib]A[Aib][Aib]Q[Aib]V[Aib]GL[Aib]PV[Aib][Aib]QQ[Phe(ol)]) are 0.209 µM and 2.36 µM.
The corresponding values for `O=C1c2ccc3c4c(ccc(c24)C(=O)N1CCCCO)C(=O)N(CCCCO)C3=O` are 1.21 µM and 3.22 µM.
As for `NS(=O)(=O)c1cccc(Nc2cc(-c3ccc(F)cc3)[nH]n2)c1`, the GI50 was > 23.6 µM and the TGI is > 25 µM.
The corresponding values for `COC(=O)c1sc(-n2cnc3cc(OC)c(OC)cc32)cc1OCc1ccccc1C(F)(F)F` are 3.72 µM and > 25 µM.
Take `Cc1ccc(C)c(N2CCN(c3ccncc3N)CC2)c1`: the GI50 is 3.4 µM and the TGI was found to be 18 µM.
The corresponding values for `CC[C@H](C)[C@H](NC(=O)CN(C)C)C(=O)N(C)[C@H](C[C@@H](OC(C)=O)c1nc(C(=O)NC23C4C5C2C2C3C4C52C(=O)OC)cs1)C(C)C` (some centres not stated) are 0.147 µM and > 33.2 µM.
Consider `CC(C)(C)n1cc(-c2ccnc(NCCCNS(=O)(=O)c3cccc4ccccc34)c2)c(-c2cccc(O)c2)n1`, for which the GI50 is 2.04 µM and the TGI worked out at 5.39 µM.
On to `CC1CCc2c(C(=O)Nc3ncc(Cc4cccc([N+](=O)[O-])c4)s3)csc2C1` (configuration not stated), for which the GI50 is 0.345 µM and the TGI is > 100 µM.
Regarding `COc1ccc([C@@H]2[C@@H](Cl)C(=O)N2c2cc(OC)c(OC)c(OC)c2)cc1C`, the GI50 is 0.0414 µM and the TGI is > 100 µM.
With `COc1cc(OC)c(/C=C/S(=O)(=O)Cc2ccc(OC)c(N)n2)c(OC)c1`, the GI50 is < 0.01 µM and the TGI was > 100 µM.
Take `Nc1nc(SCC#CCCl)c2[nH]cnc2n1`: the GI50 is 1.88 µM and the TGI came out at 6.38 µM.
The matching figures for `Oc1ccccc1/C=N\NC(=S)Nc1ccc(F)cc1`: 2.53 µM and 26.5 µM.
With `CC/C(=C/c1ccc(OC)cc1)[N+](=O)[O-]`, the GI50 is 1.83 µM and the TGI was 3.63 µM.
The corresponding values for `CC(Nc1c(C#N)cnc2ccc(-c3cncc(O)c3)cc12)c1ccccc1` (configuration not stated) are 0.913 µM and 3.43 µM.
The corresponding values for `C#Cc1nc(C2=C(C)/C(=N/OCc3ccccc3)CC2)cs1` are 17.8 µM and 94.7 µM.
The matching figures for `COC(=O)[C@]12CC[C@@H](C)[C@H](C)[C@@H]1C1=CC[C@@H]3[C@@]4(C)C[C@@H](OC(C)=O)[C@H](OC(C)=O)[C@@](C)(COC(C)=O)[C@@H]4[C@H](O)C[C@@]3(C)[C@]1(C)CC2`: 0.832 µM and 46 µM.
As to `CNC(=O)c1sc(-n2cnc3cc(OC)c(OC)cc32)cc1OCc1ccccc1C(F)(F)F`, the GI50 is > 19 µM and the TGI was > 25 µM.
For the compound `COc1cc([C@@H]2c3cc4c(cc3[C@@H](OC3OC5COC(C)OC5C(O)C3O)[C@H]3COC(=O)[C@H]23)OCO4)cc(OC)c1O` (some centres not stated), the GI50 was 2.73 µM and 2.12 µM; the TGI is 22.3 µM and 18.7 µM.

The values above are taken from PubChem BioAssay (NCI).
